Measurements reported in ChEMBL document CHEMBL5149962, “Targeting KRAS mutant cancers by preventing signaling transduction in the MAPK pathway” (Eur J Med Chem, 2021).
Where a SMILES comes first, the peptide text is derived from it. Bridges are numbered along the chain shown (N, C = ends). [ ]: non-standard residue; d: D form. S5 = C=CCCC[C@](C)(N)C(=O)O

What was measured:
MDA-MB-231 = test: Antiproliferative activity against human MDA-MB-231 cells harboring HRAS mutant incubated for 48 hrs by MTT assay; format: functional, cell-based; details: MDA-MB-231, 48 h
RPMI-8226 = test: Induction of apoptosis in human RPMI-8226 cells harboring KRAS mutant assessed as reduction in cell viability measured after 48 hrs by Annexin V-FITC staining based flow cytometry analysis; format: functional; details: RPMI-8226, 48 h
NCI-H929 = test: Induction of apoptosis in human NCI-H929 cells harboring NRAS mutant assessed as reduction in cell viability measured after 48 hrs by Annexin V-FITC staining based flow cytometry analysis; format: functional
MCF-10A = test: Antiproliferative activity against human MCF-10A cells harboring HRAS mutant incubated for 48 hrs by MTT assay; format: functional, cell-based
[1] = Antiproliferative activity against human Hs578Bst cells harboring HRAS mutant incubated for 48 hrs by MTT assay; format: functional, cell-based
[2] = Induction of apoptosis in human U266B cells harboring wild type RAS mutant assessed as reduction in cell viability measured after 48 hrs by Annexin V-FITC staining based flow cytometry analysis; format: functional
[3] = Inhibition of human N-terminal His-tagged recombinant wild-type KRAS (1 to 156 residues) expressed in Escherichia coli BL21 (DE3)/SAH-SOS1A by fluorescence based polarization assay
GTPase HRas [4] = target: T1, GTPase HRas (Homo sapiens, UniProt P01112); test: Inhibition of human p21 h-RAS assessed as reduction in C-Cdc25 stimulated nucleotide exchange by luminescence spectrometer based analysis
SW480 = test: Antiproliferative activity against human SW480 cells assessed as cell growth inhibition by CCK-8 assay relative to control; format: functional
HCT-116 = test: Antiproliferative activity against human HCT-116 cells harboring KRAS G13D mutant assessed as cell growth inhibition measured after 96 hrs by MTT assay; format: functional
[5] = Binding affinity to recombinant human KRAS (1 to 169 residues) expressed in Escherichia coli - recombinant human SOS1 (560 to 1049 residues) expressed in Escherichia coli assessed as dissociation constant
GTPase KRas = GTPase KRas (Homo sapiens, UniProt P01116); test: Binding affinity to KRAS (unknown origin) assessed as dissociation constant
HT-29 [6] = test: Cytotoxicity against human HT-29 cells assessed as cell growth inhibition after 72 hrs by MTT assay; format: functional, cell-based; details: HT-29, 72 h
HT-29 [7] = test: Cytotoxicity against human HT-29 cells assessed as cell growth inhibition after 72 hrs in presence of doxorubicin by MTT assay; format: functional, cell-based; details: HT-29, 72 h
GTPase NRas = GTPase NRas (Homo sapiens, UniProt P01111); test: Binding affinity to NRAS (unknown origin) assessed as inhibition constant
[8] = Antiproliferative activity against human cancer cell lines harboring KRAS mutation assessed as reduction in cell viability; format: functional, cell-based
[9] = Antiproliferative activity against human cancer cell lines harboring wild type RAS mutation assessed as reduction in cell viability; format: functional, cell-based
A549 [10] = test: Cytotoxicity against human A549 cells assessed as cell growth inhibition after 72 hrs by MTT assay; format: functional, cell-based; details: A549, 72 h
GTPase HRas [11] = target: T1, GTPase HRas; test: Binding affinity to HRAS (unknown origin) assessed as inhibition constant
A549 [12] = test: Cytotoxicity against human A549 cells assessed as cell growth inhibition after 72 hrs in presence of doxorubicin by MTT assay; format: functional, cell-based; details: A549, 72 h
[13] = Cmax in cynomolgus monkey; format: ADME, Macaca fascicularis; details: in vivo
[14] = AUC in cynomolgus monkey; format: ADME, Macaca fascicularis; details: in vivo
[15] = Reduction in KRAS mutant level in tumor of human PANC-1 cells xenografted nude mouse at 40 mg/kg, po administered daily for 10 days by immunoblot analysis relative to control; format: functional; set-up: scale not given: the % may be the effect or the level left; details: time 10 day
A549 [16] = test: Antitumor activity against human A549 cells xenografted in athymic nude mouse assessed as reduction in tumour volume at 10 mg/kg, ip administered once daily measured after 24 days relative to control; format: functional; set-up: scale not given: the % may be the effect or the level left; details: time 24 day
[17] = Toxicity in nude mouse xenografted with human PANC-1 cells assessed as reduction in body weight at 40 mg/kg, po administered daily for 10 days relative to control; format: organism-based; set-up: scale not given: the % may be the effect or the level left; details: in vivo, 240 h, time 10 day
[18] = Reduction in phosphor-ERK mutant level in tumor of human PANC-1 cells xenografted nude mouse at 40 mg/kg, po administered daily for 10 days by immunoblot analysis relative to control; format: functional; set-up: scale not given: the % may be the effect or the level left; details: time 10 day
HT-29 [19] = test: Antiproliferative activity against human HT-29 cells assessed as reduction in cell growth at 100 uM measured after 7 days relative to control; format: functional; set-up: scale not given: the % may be the effect or the level left; details: time 7 day
[20] = Reduction in KRAS-GTP mutant level in tumor of human PANC-1 cells xenografted nude mouse at 40 mg/kg, po administered daily for 10 days by immunoblot analysis relative to control; format: functional; set-up: scale not given: the % may be the effect or the level left; details: time 10 day
SK-MES-1 = test: Antitumor activity against human SK-MES-1 HTB-58 cells xenografted in athymic nude mouse assessed as reduction in tumour volume at 10 mg/kg, ip administered once daily measured after 24 days; format: functional; details: time 24 day
A549 [21] = test: Antitumor activity against human A549 cells xenografted in athymic nude mice assessed as inhibition of tumor growth at 50 mg/kg, po administered daily measured after 16 days relative to control; format: functional; set-up: scale not given: the % may be the effect or the level left; details: time 16 day
Rat1 = test: Inhibition of cell growth in rat Rat1 cells transfected with HRAS; format: functional, cell-based
[22] = Competitive inhibition of human FPTase using K-RasB peptide as a substrate assessed as inhibition constant by Scintillation proximity assay
SU.86.86 = test: Antiproliferative activity against human SU-86-86 cells harboring KRAS 12 mutation assessed as inhibition of cell growth incubated for 4 to 7 days; format: functional, cell-based
HT1197 = test: Antiproliferative activity against human HT1197 cells harboring HRAS 61 mutation assessed as inhibition of cell growth incubated for 4 to 7 days; format: functional, cell-based
[23] = Inhibition of human FPTase using K-RasB peptide as a substrate assessed as inhibition of substrate farnesylation
NCI-H441 = test: Antiproliferative activity against human NCI-H441 cells harboring KRAS 12 mutation assessed as inhibition of cell growth incubated for 4 to 7 days; format: functional, cell-based
Capan-2 = test: Antiproliferative activity against human Capan-2 cells harboring KRAS 12 mutation assessed as inhibition of cell growth incubated for 4 to 7 days; format: functional, cell-based

T1 sequence (P01112 whole entry): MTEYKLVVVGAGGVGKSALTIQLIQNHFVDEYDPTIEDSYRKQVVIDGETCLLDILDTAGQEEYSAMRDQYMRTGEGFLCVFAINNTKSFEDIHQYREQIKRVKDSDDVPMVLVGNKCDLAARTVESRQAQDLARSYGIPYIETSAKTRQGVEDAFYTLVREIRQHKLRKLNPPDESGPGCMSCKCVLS
Chain of GTPase NRas (P01111 whole entry): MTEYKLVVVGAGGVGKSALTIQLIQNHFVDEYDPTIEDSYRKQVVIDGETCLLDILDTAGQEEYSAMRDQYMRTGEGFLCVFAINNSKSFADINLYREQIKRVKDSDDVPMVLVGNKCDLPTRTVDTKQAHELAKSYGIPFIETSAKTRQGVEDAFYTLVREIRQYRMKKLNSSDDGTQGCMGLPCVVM
Chain of GTPase KRas (P01116 whole entry): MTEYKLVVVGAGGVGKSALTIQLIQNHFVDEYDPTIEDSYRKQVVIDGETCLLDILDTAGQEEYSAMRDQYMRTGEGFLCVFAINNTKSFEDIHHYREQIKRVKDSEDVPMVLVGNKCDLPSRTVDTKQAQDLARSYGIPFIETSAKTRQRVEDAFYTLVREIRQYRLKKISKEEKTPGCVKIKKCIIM

Work on COC(=O)[C@H](CCSC)NC(=O)c1ccc(NC[C@H](N)CS)cc1-c1ccccc1 yielded an IC50 (MDA-MB-231) of 29.3 µM, an IC50 (RPMI-8226) of 41.6 µM and an IC50 (NCI-H929) of 12.7 µM. The IC50 (MCF-10A) was 6.83 µM, the IC50 [1] was 14.9 µM and the IC50 [2] was 25.4 µM.
For CC[C@H](C)[C@H](NC(=O)CNC(=O)[C@H](Cc1ccccc1)NC(=O)[C@@H](N)Cc1ccccc1)C(=O)N[C@@]1(C)CCC/C=C\CCC[C@@](C)(C(=O)N[C@@H](CC(C)C)C(=O)N[C@@H](CCCCN)C(=O)N[C@H](C(=O)N[C@@H](CCC(=O)O)C(=O)N[C@@H](CCC(=O)O)C(=O)NCC(=O)N[C@@H](CC(N)=O)C(=O)O)[C@@H](C)O)NC(=O)[C@H](CC(N)=O)NC(=O)[C@H]([C@@H](C)O)NC(=O)[C@H](CC(C)C)NC1=O, the EC50 [3] was 0.1 µM.
Compound [O-][S+](NC[C@@H]1CC2O[C@H](OCc3ccccc3)[C@@H](OCc3ccccc3)C2O1)c1ccc(NO)cc1 (stereo not given in full) has an IC50 (GTPase HRas [4]) of 35.5 µM.
CC[C@H](C)[C@H](NC(=O)[C@]1(C)CCC/C=C\CCC[C@](C)(NC(=O)CNC(=O)[C@H](Cc2ccccc2)NC(=O)[C@@H](N)Cc2ccccc2)C(=O)N[C@@H](Cc2ccc(O)cc2)C(=O)N[C@@H](CC(C)C)C(=O)N[C@@H]([C@@H](C)O)C(=O)N1)C(=O)N[C@@H](CC(C)C)C(=O)N[C@@H](CCCCN)C(=O)N[C@H](C(=O)N[C@@H](CCC(=O)O)C(=O)N[C@@H](CCC(=O)O)C(=O)NCC(=O)N[C@@H](CC(N)=O)C(=O)O)[C@@H](C)O gave an EC50 [3] of 0.1 µM.
With Cc1ccc(NC(=S)NNc2c([N+](=O)[O-])cc(C(F)(F)F)cc2[N+](=O)[O-])cc1Cl the “inhibition (INH)” value (SW480) was 66.3%.
In the case of CC[C@H](C)[C@@H]1NC(=O)CNC(=O)[C@@](C)(NC(=O)[C@@H](N)Cc2ccccc2)CCC/C=C\CCC[C@@](C)(C(=O)N[C@H](C(=O)N[C@@H](C)C(=O)N[C@H](C(=O)N[C@@H](CC(C)C)C(=O)N[C@@H](CCCCN)C(=O)N[C@H](C(=O)N[C@@H](CCC(=O)O)C(=O)N[C@@H](CCC(=O)O)C(=O)NCC(=O)N[C@@H](CC(N)=O)C(=O)O)[C@@H](C)O)[C@@H](C)CC)[C@@H](C)O)NC(=O)[C@H](Cc2ccc(O)cc2)NC1=O (H-F[S5]GIY[S5]TAILKTEEGN-OH; staple (Z) 2-6), the EC50 [3] is reported as 0.1 µM.
C=C1CC[C@@H]2[C@](C)(CO)[C@H](O)CC[C@@]2(C)[C@@H]1C/C=C1/C(=O)OC[C@H]1O [ANDROGRAPHOLIDE] gave a GI50 (HCT-116) of 4.5 µM.
Work on CNCc1ccccc1-c1csc([C@@H](C)Nc2nc(C)nc3cc(OC)c(OC)cc23)c1 [BAY-293] yielded a Kd [5] of 0.036 µM.
c1ccc2[nH]cnc2c1 [BENZIMIDAZOLE] gave a Kd (GTPase KRas) of 1500 µM.
N#Cc1ccc(Cn2cncc2CN2CCN(c3cccc(Cl)c3)C(=O)C2)cc1 [L-778123 FREE BASE] showed an IC50 (HT-29 [6]) of 126 µM, an IC50 (HT-29 [7]) of 1.52 µM and a Ki (GTPase NRas) of 0.0003 µM. The IC50 [8] was 2.28 µM, the IC50 [9] was 0.07 µM and the IC50 (A549 [10]) was 101 µM. The Ki (GTPase HRas [11]) was 0.0016 µM and the IC50 (A549 [12]) was 1.72 µM.
In the case of NC(=O)N1CCC(CC(=O)N2CCC([C@H]3c4ncc(Br)cc4CCc4cc(Cl)cc(Br)c43)CC2)CC1 [LONAFARNIB], the Cmax [13] is reported as 1900 nM and the AUC [14] is reported as 14700 ng·h/mL.
CC(C)=CCC/C(C)=C/CC/C(C)=C/CSc1ccccc1C(=O)O [SALIRASIB] gave an Activity [15] of 50%, an Activity (A549 [16]) of 53.8% and an Activity [17] of 67%. It also gave an Activity [18] of 84%, an Activity (HT-29 [19]) of 85% and an Activity [20] of 64%. For the same compound, the Activity (SK-MES-1) was 0.03 cm3, the Activity (A549 [21]) was 53.7% and the EC50 (Rat1) was 7.5 µM.
With CNC(=O)c1cc(Oc2ccc(NC(=O)Nc3ccc(Cl)c(C(F)(F)F)c3)cc2)ccn1 [SORAFENIB] the “inhibition (INH)” value (SW480) was 83.8%.
For Cn1cncc1[C@@](N)(c1ccc(Cl)cc1)c1ccc2c(c1)c(-c1cccc(Cl)c1)cc(=O)n2C [TIPIFARNIB], the Ki [22] was 0.0005 µM, the IC50 (SU.86.86) was 0.0095 µM and the IC50 (HT1197) was 0.0017 µM. The IC50 [23] was 0.0079 µM, the IC50 (NCI-H441) was 0.036 µM and the IC50 (Capan-2) was 0.016 µM.
